What was measured:
[1] = tested on: muscarinic acetylcholine receptors; settings: 'is believed to bind'; cited from earlier work
[2] = tested on: mild-to-moderate Alzheimer's disease patients; experiment: Phase 2a clinical trial: event related potentials (ERP), auditory P300, three-stimulus oddball paradigm; format: in vivo
Protocol: (§1) The 36-day multicenter randomized clinical trial included both male and female mild-to-moderate Alzheimer's disease patients. ANAVEX2-73 was administered to twelve subjects as an add-on therapy to the donepezil current standard of care. ANAVEX2-73 was administered according to a two-period on-off-on cross-over dosing regimen in which the subjects were administered ANAVEX2-73 for 12 days (1st period) followed by a 12-day wash-out period before being administered ANAVEX2-73 for a second 12-day period (2nd period). Those subjects that were administered ANAVEX2-73 by oral administration during the 1st period were administered ANAVEX2-73 intravenously during the 2nd period, and vice versa. About half of the subjects were administered a 30 mg oral dosage form while the other half of subjects were administered a 50 mg oral dosage form. The intravenous dosage was either 3 mg or 5 mg, with about half of the subjects administered 3 mg and the other half administered 5 mg.
Resting electroencephalographic (EEG) activity and event related potentials (EEG/ERP) were used to assess the cognitive effects of ANAVEX2-73 administration. Event related potentials (ERPs) are voltage changes time-locked to some physical or mental occurrence in ongoing electrical brain activity, as recorded by EEG. Event-related potentials (ERPs) provide a sensitive and reliable measure of the cognitive effects associated with early Alzheimer's disease. […] See for example, New Encycl. Neurosci., Oxford Academic Press, p. 13-18 (2009). For example, ERP tests on young presymptomatic individuals who carry mutations in the presenilin-1 and amyloid precursor protein genes show significant changes in ERP patterns years before the onset of behavioral symptoms and the development of Alzheimer's disease. See for example, Neurology 73, 1649-1655 (2009); Neurology 77, 469-475 (2011). […] For instance, ERP markers of cognitive function are increasingly altered in longitudinal studies on individuals with mild cognitive impairment (MCI) and Alzheimer's disease patients. See for example, Clin. Neurophysiol. 122, 1322-1326 (2011); Clin. Neurophysiol. 121, 194-199 (2010). […] See for example, Neurol. Neurochir. Pol. 35 Suppl 3, 37-43 (2001); Clin. Neuropharmacol. 25, 207-215 (2002); Neurosci. Biomed. Eng. 1, 34-39 (2013).
In particular, the auditory P300 component of the ERP has been widely applied in the study of age-related cognitive dysfunction because it is thought to reflect attentional and memory processes. Auditory P300 is a positive deflection occurring at about 300 ms from stimulus onset. It is generated by the activation of multiple neocortical and limbic regions. Auditory P300 has two functionally different components, an earlier P3a component that is maximal over frontocentral regions, and a later P3b component (hereafter "P300") that is maximal at the posterior scalp locations. See for example, Int. J. of Alzheimer's Dis. 2011, Article ID 653173, 1-7 (2011). P300 amplitude data collected as part of a double blind six month study for 15 patients with mild Alzheimer's disease on donepezil, as compared to a vitamin E baseline, has shown that P300 amplitude data correlates with ADAS-Cog and MMSE data for the same patients. See, Clin. Neuropharmacol. 25(4), 207-215 (2002).
Subjects were tested using a three-stimulus oddball paradigm. Stimuli comprised of standard tones (1000 Hz), target tones (2000 Hz) and unexpected distractor tones (white noise) that were played with probabilities of 0.75, 0.15, and 0.10. Tones were presented in pseudorandom order, so that target and distractor tones were never presented sequentially. Subjects were instructed to respond to the target stimuli by pressing a button with their dominant hand. For each test, between 300 and 400 stimuli were presented binaurally through insert ear phones at 70 dB volume. The tone duration for each stimulus was 100 ms with rise and fall times of 10 ms. The interstimulus interval was randomized between 1.5 and 2 s. […]

sigma-1 = sigma-1 (Homo sapiens, UniProt Q99720); settings: sigma-1 receptor; 'is believed to bind'; cited from earlier work
[3] = tested on: mild-to-moderate Alzheimer's disease patients; experiment: Phase 2a clinical trial: EEG peak alpha frequency (PAF); format: in vivo; settings: twelve patients, day 36 vs baseline
Protocol: as §1, with “The intravenous dosage was either 3 mg or 5 mg, with about half of the subjects administered 3 mg and the other half administered 5 mg.” left out
Resting electroencephalographic (EEG) activity and event related potentials (EEG/ERP) were used to assess the cognitive effects of ANAVEX2-73 administration. Event related potentials (ERPs) are voltage changes time-locked to some physical or mental occurrence in ongoing electrical brain activity, as recorded by EEG. […]
Subjects were tested using a three-stimulus oddball paradigm. […] Electroencephalographic (EEG) activity was recorded from seven electrode sites (Fz, Cz, Pz, F3, P3, F4, and P4) of the international 10-20 system using a COGNISION™ Headset (Neuronetrix). […]

[4] = tested on: mild-to-moderate Alzheimer's disease patients; experiment: Phase 2a clinical trial: safety profile; format: in vivo; settings: during Phase 2a trials
Protocol: as §1
(§2) 5-9, were achieved without any dose optimization. […] An additional 20 subjects will be studied during the remainder of the Phase 2a clinical trial. Phase 2b clinical trials, involving an additional 26-week extension of daily oral dosage administration of ANAVEX2-73 is on-going.

[5] = tested on: mild-to-moderate Alzheimer's disease patients; experiment: Phase 2a clinical trial: MMSE and Cogstate scales; format: in vivo; settings: preliminary; twelve subjects, on-off-on regimen
Protocol: as §1, §2

[6] = tested on: patients with Alzheimer's disease or presenting with the early signs of Alzheimer's disease; experiment: Single-patient treatment examples with intermittent dosing regimen; format: in vivo; settings: person
Excerpt: The following examples show uses of ANAVEX2-73 in the treatment of patients with Alzheimer's disease or presenting with the early signs of Alzheimer's disease. The clinical determination that a patient may have Alzheimer's disease or is presenting with early signs of Alzheimer's disease is well known in the art. By way of example, the following references (and all publications cited herein) are incorporated by reference herein in their entireties: Dementia: From Diagnosis to Management - A Functional Approach 1st Edition, Psychology Press (February 17, 2009); Clinician's Guide to Psychological Assessment and Testing: With Forms and Templates for Effective Practice 1st Edition, Springer Publishing Company (September 18, 2012); Neurodegener. Dis. Manag. 5(3), 191-201 (2015); Artif. Intell. Med. 64(1), 59-74 (2015); Clin. Chem. 60(12), 1585-1586 (2014); and Metabolism 64(3 Suppl 1), S47-50 (2014).

amyloid toxicity in mice = settings: cited from earlier work
healthy male volunteers = experiment: Randomized, placebo-controlled single ascending dose Phase 1 study; format: in vivo
Protocol: See Poster: A Phase 1 Dose Escalation Study to Investigate Safety, Tolerability, and Pharmacokinetics of ANAVEX2-73 in Healthy Male Subjects, CNS Summit 2014, Boca Raton, FL, by Ole Voges, Ingo Weigmann, Norman Bitterlich, Christoph Schindler and Christopher Missling. […] Based on the frequency and intensity of […] adverse events (TEAEs) the maximum tolerable dose (MTD) and the minimum intolerable dose (MID) were defined as 55 mg and 60 mg, respectively.

[7] = single ascending oral doses, healthy subjects

Chain of sigma-1 (Q99720 whole entry): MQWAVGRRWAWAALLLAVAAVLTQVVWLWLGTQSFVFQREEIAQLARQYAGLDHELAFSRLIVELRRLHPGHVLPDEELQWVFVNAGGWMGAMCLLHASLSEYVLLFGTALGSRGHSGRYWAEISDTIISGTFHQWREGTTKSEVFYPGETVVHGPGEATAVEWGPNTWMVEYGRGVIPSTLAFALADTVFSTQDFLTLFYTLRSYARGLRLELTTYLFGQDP

## CN(C)CC1CCOC1(c1ccccc1)c1ccccc1.Cl (stereo not drawn) [ANAVEX2-73, tetrahydro-N,N-dimethyl-2,2-diphenyl-3-furanmethanamine hydrochloride]
[1]
  affinities: low micromolar range
[2]; 10 out of the 12 patients studied
  patients with improved P300 signal: 83%
[2]; P300 amplitude, Day 36 vs baseline, twelve patients, hydrochloride
  Percentage Increase Over Baseline Data: 38%
[2]; after 1 month vs donepezil after 6 months
  percent P300 amplitude change compared to historical data for patients administered donepezil: greater
[2]; day 36 (1 month) vs donepezil at the 1 month time point
  P300 amplitude change compared to historical data for patients administered donepezil: about four times higher
[2]; target detection task, Day 36, twelve patients (baseline 2.67 ± 1.12)
  False Alarms: 0.64 ± 0.26%
[2]; target detection task, Day 36, twelve patients (baseline 86.2 ± 4.47)
  Button Press Accuracy: 87.5 ± 4.01%
[2]; target detection task, Day 36, twelve patients (baseline 593 ± 33.0)
  Median Reaction Time: 534 ± 42.0 ms
[2]; twelve patients, day 36 vs baseline, on-off-on regimen (30 or 50 mg oral, 3 or 5 mg i.v.), add-on to donepezil
  P300 ERP wave data: improved measured cognitive performance as compared to the baseline data
sigma-1
  affinities: low micromolar range
[3]
  peak alpha frequency (PAF): higher than the baseline measurement of PAF
[4]
  safety profile: consistent with the Phase 1 data
[5]
  Mini Mental State Examination (MMSE) and Cogstate scale changes: consistent with the observed trend of the cognitive EEG/ERP effect
[6]; 3 mg intravenously, 5 days on / 20 days off, one year
  loss of cognitive function: stabilizes
[6]; 5 mg intravenously, 14 days on / 7 days off, one year
  loss of cognitive function: stabilizes
[6]; 30 mg oral, 10 days on / 10 days off, 6 months
  loss of cognitive function: stabilizes
[6]; 50 mg oral, 10 days on / 20 days off
  loss of cognitive function: stabilizes
[6]; 50 mg oral, 14 days on / 7 days off, 6 months
  loss of cognitive function: stabilized
Amyloid toxicity in mice; Aβ25-35 model
  Aβ25-35-induced P-Akt decrease and P-GSK-3β increase: blocked
  Aβ25-35-induced endogenous Aβ1-42 seeding: decrease
Amyloid toxicity in mice; Aβ25-35 model, in the dose-range tested
  hyperphosphorylation of Tau on physiological epitopes (AT-8 antibody clone) and on pathological epitopes (AT-100 clone): attenuated
Amyloid toxicity in mice; mice one week after i.c.v. injection of oligomeric Aβ25-35
  oxidative stress, caspases induction, cellular loss and learning and memory deficits: attenuating
Healthy male volunteers; ascending single oral doses of 1 mg, 10 mg, 30 mg, 40 mg, 50 mg, and 55 mg, healthy subjects
  safety and tolerability: safe and well tolerated
Healthy male volunteers; at highest doses
  observed adverse events: moderate and reversible dizziness and headache
Healthy male volunteers; male, human, in vivo, po
  minimum intolerable dose (MID): 60 mg
Healthy male volunteers; [7]
  Blood pressure and resting heart rate and other clinical parameters such as vital signs and 12-lead electrocardiogram (ECG): did not show any clinically relevant or dose-dependent changes
  QT interval and QTcB: did not reveal any clinically significant changes
  pharmacokinetics: suitable for daily oral dosing
  serious adverse events: No serious adverse events occurred
Healthy male volunteers; single oral dose, healthy male volunteers
  maximum tolerable dose (MTD): 55 mg

From EP4537846A2, “ANAVEX2-73 FOR THE TREATMENT OF ALZHEIMER S DISEASE” (priority 2017, dated 2018)
